Experiment [1] deals with T1, Estrogen receptor (Homo sapiens, UniProt Q92731+P03372). The experiment can be described thus: Affinity estrogen receptor of MCF-7 human mammary cancer cells. It is filed as cell-based. The following applies: mcf7.
The target in experiment [2] is T1, Estrogen receptor. The experiment can be described thus: (§1) Induction of pS2 mRNA expression in human MCF-7 mammary carcinoma cells. It is filed as functional, cell-based. Conditions: mcf7.
For experiment [3], the target named is T1, Estrogen receptor. Described as §1. It is filed as functional, cell-based. Conditions: mcf7. The source holds these as a separate data set.
In experiment [4] the target is T1, Estrogen receptor. The experiment can be described thus: Affinity for estrogen receptor. It is filed as protein assay.

By EC50 is commonly meant the concentration needed to bring the measured effect to its halfway point. Read a low EC50 as greater potency. On to `C[C@]12CC[C@@H]3c4cc(C=O)c(O)cc4CC[C@H]3[C@@H]1CC[C@@H]2O`, for which the 50% effective concentration (EC50) on Estrogen receptor [1] turned out to be 782 nM. This lies in the sub-micromolar range.

With `C[C@]12CC[C@@H]3c4cc(O)c(O)cc4CC[C@H]3[C@@H]1CC[C@@H]2O`, the EC50 on Estrogen receptor [1] came out at 1660 nM; at Estrogen receptor [2] it was 504 nM.

As to `C[C@]12CC[C@@H]3c4cc(CCO)c(O)cc4CC[C@H]3[C@@H]1CC[C@@H]2O`, the results for the EC50 at Estrogen receptor [1] and at Estrogen receptor [2] were 4890 nM and 272 nM, respectively.

In the case of `C[C@]12CC[C@@H]3c4cc(CCCO)c(O)cc4CC[C@H]3[C@@H]1CC[C@@H]2O`, the figures for the EC50 on Estrogen receptor [1], on Estrogen receptor [2] and on Estrogen receptor [3] were 5220 nM, 495 nM and 0.004 nM, respectively.

Take `C[C@]12CC[C@@H]3c4cc(CO)c(O)cc4CC[C@H]3[C@@H]1CC[C@@H]2O`: the EC50 on Estrogen receptor [1] came out at 342 nM; on Estrogen receptor [2], 10.3 nM; on Estrogen receptor [3] it was 2.79 nM; on Estrogen receptor [4], 146 nM.

These data come from ChEMBL document CHEMBL1129570, “2-(Hydroxyalkyl)estradiols: synthesis and biological evaluation” (J Med Chem, 1996).
